Source: patent US11382900B2, “Composition for preventing or treating sleep disorders” (AMOREPACIFIC CORPORATION, priority 2017, dated 2022)
Like-named read-outs stand apart in the source and are kept apart here.

How the values were obtained:
[1] = set-up: species or system C57BL/6 mice; conditions: in vivo; for increase in body temperature: C57BL/6, mouse, 2 h; for concentration dependence of body temperature increase: mouse
Description: As described above, AMG 517, a representative reference drug as a TRPV1 antagonist, and the compound of Formula 1 of the present invention were tested for the increase in body temperature during transdermal administration.

[2] = Change in body temperature after oral administration (nonclinical); type: in vivo, Balb/c mice; conditions: for change in body temperature, dose dependence: up to 4 hours, AMG 517 0.03, 0.1, 0.3 mg/kg, compound of Formula 1 3, 10, 30 mg/kg
Text: Meanwhile, when the same drug was orally administered, a concentration-dependent increase in body temperature due to TRPV1 antagonism was observed as expected (see FIGS. 2A and 2B).

[3] = rats, oral dose of 3 mg/kg; cited from earlier work
TRPV1 = molecular target: T1, TRPV1 (Rattus norvegicus, UniProt O35433); conditions: rats; cited from earlier work
T1 construct: host or cells: living rats (endogenous protein)

[4] = oral administration for treatment of dental pain; cited from earlier work

T1 sequence (O35433 whole entry): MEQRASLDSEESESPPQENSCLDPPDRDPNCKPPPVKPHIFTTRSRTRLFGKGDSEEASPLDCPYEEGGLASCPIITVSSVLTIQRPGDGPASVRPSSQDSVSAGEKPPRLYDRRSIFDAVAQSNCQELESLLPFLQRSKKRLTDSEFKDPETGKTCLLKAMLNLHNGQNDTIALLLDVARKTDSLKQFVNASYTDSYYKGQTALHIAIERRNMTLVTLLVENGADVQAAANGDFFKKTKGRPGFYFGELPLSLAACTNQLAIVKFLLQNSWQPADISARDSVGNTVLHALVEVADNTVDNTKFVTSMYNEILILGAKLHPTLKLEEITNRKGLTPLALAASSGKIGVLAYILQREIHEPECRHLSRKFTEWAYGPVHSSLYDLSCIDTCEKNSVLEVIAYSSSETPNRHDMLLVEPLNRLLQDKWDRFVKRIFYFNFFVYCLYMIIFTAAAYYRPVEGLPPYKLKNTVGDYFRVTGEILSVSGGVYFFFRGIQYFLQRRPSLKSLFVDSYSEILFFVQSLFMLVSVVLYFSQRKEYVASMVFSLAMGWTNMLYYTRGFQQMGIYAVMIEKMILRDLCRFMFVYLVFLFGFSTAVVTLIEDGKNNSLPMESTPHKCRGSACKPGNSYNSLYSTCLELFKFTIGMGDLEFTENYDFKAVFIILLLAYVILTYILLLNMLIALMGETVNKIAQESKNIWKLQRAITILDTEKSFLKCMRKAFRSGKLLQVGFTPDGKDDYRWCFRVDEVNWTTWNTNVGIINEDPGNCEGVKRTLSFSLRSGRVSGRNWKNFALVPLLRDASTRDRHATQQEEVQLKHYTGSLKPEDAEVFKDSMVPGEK

SMILES | increase in body temperature [1] [°C] | concentration dependence of body temperature increase [1] | change in body temperature at lowest dose ([2]; 0.03 mg/kg) | change in body temperature, dose dependence [2] | increase in body temperature [3] | effective concentration to maximize analgesic efficacy (TRPV1) | body temperature raised in human [4] | hyperthermia side effect [4]
CC(=O)Nc1nc2c(Oc3cc(-c4ccc(C(F)(F)F)cc4)ncn3)cccc2s1 [AMG 517] | ~1.59 | significant concentration-dependent increase in body temperature | significantly increased body temperature | increased body temperature in a dose—dependent manner | about 1.3 °C | less than 0.3 mg/kg | up to 40 °C | concentration-dependent side effect of hyperthermia
CCCc1nc(C(F)(F)F)ccc1/C=C/C(=O)N[C@H](C)c1cc(F)c(NS(C)(=O)=O)c(F)c1 [compound of Formula 1] | ~0.84 | no concentration dependence was observed | – | increased body temperature in a dose—dependent manner | – | – | – | –
